# Test results from paper PMC9996038, “Binding of RPR260243 at the intracellular side of the hERG1 channel pore domain slows closure of the helix bundle crossing gate” (Frontiers in Molecular Biosciences, 2023).
# Biological target: T1, hERG1a (human ether-à-go-go-related gene type 1, Kv11.1) (Homo sapiens, UniProt Q12809)
# T1 construct: gene KCNH2; EC50 on split hERG1a (residues 1–545 VSD module + residues 546–1,159 pore module, coexpressed)
# Test: two-electrode voltage clamp of channels expressed in Xenopus oocytes (slowing of deactivation)
# Type: cell-based
# T1 sequence (Q12809 546-1159): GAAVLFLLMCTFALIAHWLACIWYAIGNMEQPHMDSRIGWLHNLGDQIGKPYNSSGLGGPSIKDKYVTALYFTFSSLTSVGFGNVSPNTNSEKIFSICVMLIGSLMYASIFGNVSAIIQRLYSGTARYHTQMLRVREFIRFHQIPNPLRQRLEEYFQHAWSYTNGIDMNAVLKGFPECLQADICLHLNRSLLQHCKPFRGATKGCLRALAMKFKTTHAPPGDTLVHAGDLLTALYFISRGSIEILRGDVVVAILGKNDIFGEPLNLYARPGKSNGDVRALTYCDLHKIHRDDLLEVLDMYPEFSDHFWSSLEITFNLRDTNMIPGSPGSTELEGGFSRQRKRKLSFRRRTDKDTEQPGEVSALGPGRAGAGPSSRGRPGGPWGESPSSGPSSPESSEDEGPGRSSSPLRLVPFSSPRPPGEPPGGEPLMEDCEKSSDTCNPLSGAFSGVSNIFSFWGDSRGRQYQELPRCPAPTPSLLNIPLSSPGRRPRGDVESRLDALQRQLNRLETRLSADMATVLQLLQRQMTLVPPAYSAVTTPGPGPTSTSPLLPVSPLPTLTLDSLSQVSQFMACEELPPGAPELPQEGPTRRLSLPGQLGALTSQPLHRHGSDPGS
# T1 sequence (Q12809 1-545 partner): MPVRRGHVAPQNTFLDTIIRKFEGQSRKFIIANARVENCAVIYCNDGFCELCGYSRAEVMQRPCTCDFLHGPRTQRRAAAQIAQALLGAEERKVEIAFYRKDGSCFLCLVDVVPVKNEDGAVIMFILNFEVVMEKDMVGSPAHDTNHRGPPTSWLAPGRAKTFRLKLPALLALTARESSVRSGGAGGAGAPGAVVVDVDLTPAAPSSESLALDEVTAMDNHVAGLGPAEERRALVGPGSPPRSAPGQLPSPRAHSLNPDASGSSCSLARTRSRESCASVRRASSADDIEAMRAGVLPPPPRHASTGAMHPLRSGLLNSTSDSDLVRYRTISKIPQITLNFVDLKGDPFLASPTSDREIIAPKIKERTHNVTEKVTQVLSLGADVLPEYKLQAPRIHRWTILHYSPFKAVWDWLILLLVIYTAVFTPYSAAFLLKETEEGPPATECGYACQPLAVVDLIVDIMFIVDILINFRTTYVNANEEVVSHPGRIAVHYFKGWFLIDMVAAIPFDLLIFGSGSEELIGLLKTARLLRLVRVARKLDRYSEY
compound,measurement,value
"COc1ccc2nccc(C(=O)CC[C@@H]3CCN(CC#Cc4cc(F)cc(F)c4F)C[C@@H]3C(=O)O)c2c1 [RPR, (3R,4R)-4-[3-(6-methoxyquinolin-4-yl)-3-oxo-propyl]-1-[3-(2,3,5-trifluorophenyl)-prop-2-ynyl]-piperidine-3-carboxylic acid]",EC50,7.9 ± 1 µM
